The source of these data is patent US8901126B2, “Substituted imidazo[1,5-A]quinoxalin-4-ones are useful for preventing or treating storage dysfunction, voiding dysfunction and bladder/urethral diseases” (priority 2010, dated 2014).

In one data set the target is T1, PDE9 (Homo sapiens, UniProt O76083).
T1 construct: made in house
The experiment in a line: PDE9-inhibiting activity (SPA, 3H-cGMP degradation). The data set is classed as biochemical. Conditions: PDE9-inhibiting activity (IC50 values), cGMP 1 μM, 30° C. As for the experimental part:
The PDE9 used in the present experiment was expressed/purified by the method as in, for example, Guipponi et al., and Fisher et., al. (Fisher, D. A., et al., J. Biol. Chem., 273: pp. 15559-15564 (1998), Guipponi, M., et al., Hum. Genet., 103: pp. 386-392 (1998)).
(2) Evaluation of PDE9-Inhibiting Activity
The PDE9-inhibiting activity was measured by the following method. That is, to a buffer solution containing tris(hydroxymethyl)aminomethane-hydrochloric acid (40 mM, pH 8.0), magnesium chloride (5 mM), and 2-mercaptoethanol (4 mM) were added cGMP (1 μM) and ^3H-cGMP (0.33 μCi/ml) to give a substrate buffer solution. A test substance solution and an enzyme solution which had been adjusted to an optimal concentration were added thereto to perform a reaction at 30° C. The enzyme reaction was stopped by the addition of Scintillation Proximity Assay (SPA) Beads (Perkin Elmer, USA) containing 5 mM 3-isobutyl-1-methylxanthine (IBMX). For the enzyme activity, the amount of 5′-GMP, which is a reaction degradation product bound to SPA beads, was measured with a TopCount microplate reader (Hewlett Packard, USA).
The inhibitory rate was calculated by taking the radioactivity of the control containing no test substance as (A), taking the radioactivity of the blank containing no enzyme as (B), and taking the radioactivity of the test substance as (C), and using the following equation. Inhibitory rate=100−{(C)−(B)/(A)−(B)}×100(%)

Data set [1] has as its system urethra relaxation response. The experiment in a line: Simultaneous measurement model for rat bladder contraction/urethra relaxation responses. The data set is classed as in vivo. Conditions: female SD rat, urethane anesthesia, 1 mg/kg, intravenously or intraduodenally. The text has this:
That is, a female Sprague-Dawley (SD) rat (Charles River Laboratories Japan, Inc.) was anesthetized with urethane, and the bladder was exposed by a midline incision in the lower abdomen. A double lumen cannula (a cannula having a dual structure by PE190 and PE50) from the bladder apex was inserted into the bladder, and the bladder apex and the cannula were fixed by sutures at a point where the tip reached the proximal urethra. While infusing physiological saline into the urethra through the outer cannula, the urethral inner pressure was measured by a pressure transducer through the inner cannula with a saline solution infused into the urethra through the outer cannula. On the other hand, a single cannula (PE50) was inserted into the bladder from the bladder apex and placed therein. The inner pressure of the bladder was measured through this cannula. After a postoperative stabilization period had passed, physiological saline was infused into the bladder through the cannula of the bladder apex to cause a bladder contraction reaction, and thus cause a urethra relaxation response accompanying the bladder contraction reflex. The test substance was administered intravenously or intraduodenally.

Where a name gives a salt, the structure may show the parent alone.

T1 sequence (O76083 whole entry): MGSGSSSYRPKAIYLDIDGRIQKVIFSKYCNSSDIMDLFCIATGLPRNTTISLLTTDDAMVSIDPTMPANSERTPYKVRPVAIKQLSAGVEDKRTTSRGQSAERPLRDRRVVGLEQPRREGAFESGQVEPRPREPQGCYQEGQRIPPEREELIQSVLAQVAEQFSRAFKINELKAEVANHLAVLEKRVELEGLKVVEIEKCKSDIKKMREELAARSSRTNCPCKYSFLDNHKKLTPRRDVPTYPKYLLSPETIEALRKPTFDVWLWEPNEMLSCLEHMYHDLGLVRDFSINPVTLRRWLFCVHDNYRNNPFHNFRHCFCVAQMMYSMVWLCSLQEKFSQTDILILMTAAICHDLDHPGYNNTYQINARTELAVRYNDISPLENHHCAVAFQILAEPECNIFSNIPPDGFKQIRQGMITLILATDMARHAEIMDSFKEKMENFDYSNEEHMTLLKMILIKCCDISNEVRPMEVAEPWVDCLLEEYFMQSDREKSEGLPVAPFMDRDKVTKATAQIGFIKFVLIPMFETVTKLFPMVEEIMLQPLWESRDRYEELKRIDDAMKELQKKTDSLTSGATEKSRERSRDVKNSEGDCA

Usually IC50 stands for the concentration that gives 50% inhibition. High values mean weaker potency in that assay, low ones greater potency in that assay. On to `COCc1cc2c(cc1C(=O)N1Cc3c(F)ccc(F)c3C1)[nH]c(=O)c1cnc(C3CCOC3)n12.Cl` (single isomer, unassigned) [Example 45(b)], for which the midpoint of inhibition on PDE9, the IC50, lay at 8.9 nM. Also, in data set [1], the “ratio with increased urethra relaxation time during voiding (increase relative to the solvent administration group (vs vehicle))” value is listed as 141%.
Consider `Cc1cc2c(cc1C(=O)N1CCc3cc(F)c(F)cc31)[nH]c(=O)c1cnc(C3CCOC3)n12.Cl` (single isomer, unassigned) [Example 30(b)], for which 5.8 nM corresponded to half-maximal inhibition against PDE9 (IC50). In data set [1], the “ratio with increased urethra relaxation time during voiding (increase relative to the solvent administration group (vs vehicle))” value amounted to 147%.
Regarding `COCc1cc2c(cc1C(=O)N1CCc3cc(C)cnc31)[nH]c(=O)c1cnc(C3CCOC3)n12` (single isomer, unassigned) [Example 25(b)], the IC50 on PDE9 was determined as 14 nM. Moreover, in data set [1], the “ratio with increased urethra relaxation time during voiding (increase relative to the solvent administration group (vs vehicle))” value was 131%.
The like results for `COCc1cc2c(cc1C(=O)N1CCc3cc(OC)ncc31)[nH]c(=O)c1cnc(C3CCOC3)n12` (single isomer, unassigned; (+)) [Example 4(b), (+)-7-[(5-methoxy-2,3-dihydro-1H-pyrrolo[2,3-c]pyridin-1-yl)carbonyl]-8-(methoxymethyl)-1-(tetrahydrofuran-3-yl)imidazo[1,5-a]quinoxalin-4(5H)-one dihydrochloride] were, in that order, 11 nM and 167%.
As usually defined, the melting point is the temperature of the solid-liquid transition. For `Cc1cc2c(cc1C(=O)N1c3ccc(Cl)cc3CC1C)[nH]c(=O)c1nnc(C3CCOCC3)n12.Cl` (centres unmarked) [Example 7], the melting point was in the range of 324 to 326 °C. Further, the IC50 on PDE9 worked out at 2.1 nM.
`COC1CC(c2nnc3c(=O)[nH]c4cc(C(=O)N5CCc6cc(Cl)ccc65)c(C)cc4n23)C1.Cl` (centres unmarked) [Example 8] returned a melting point of 200 to 202 °C. On PDE9, this compound came in with an IC50 of 2.8 nM.
The like results for `COc1cc2c(cn1)N(C(=O)c1cc3[nH]c(=O)c4cnc(C5CCCOC5)n4c3cc1C)CC2` (centres unmarked) [Example 3, 7-[(5-methoxy-2,3-dihydro-1H-pyrrolo[2,3-c]pyridin-1-yl)carbonyl]-8-methyl-1-(tetrahydro-2H-pyran-3-yl)imidazo[1,5-a]quinoxalin-4(5H)-one] were, in that order, 297 to 299 °C and 22 nM.
As for `Cc1cc2c(cc1C(=O)N1CC(C)c3cc(Cl)ccc31)[nH]c(=O)c1cnc(C3CCOCC3)n12.Cl` (centres unmarked) [Example 31], the melting point lay in the range of 221 to 224 °C. For the same compound, the IC50 against PDE9 was 1.4 nM. The “ratio with increased urethra relaxation time during voiding (increase relative to the solvent administration group (vs vehicle))” value in data set [1] was 149%.
At PDE9, `COc1cc2c(cn1)N(C(=O)c1cc3[nH]c(=O)c4cnc(C5CCOC5)n4c3cc1C)CC2` (single isomer, unassigned) [Example 27(b)] had an IC50 of 26 nM. Moreover, in data set [1], the “ratio with increased urethra relaxation time during voiding (increase relative to the solvent administration group (vs vehicle))” value is recorded as 181%.
Consider `Cc1cc2c(cc1C(=O)N1CCc3cc(Br)cnc31)[nH]c(=O)c1cnc(C3CCCOC3)n12` (centres unmarked) [Example 47], for which the melting point was 300 to 305 °C (dec.). On PDE9, this compound registered an IC50 of 2.1 nM.
`Cc1cc2c(cc1C(=O)N1CCc3cc(Br)cnc31)[nH]c(=O)c1cnc([C@@H]3CCC[C@@H]3O)n12` (racemic) [Example 5, 7-[(5-bromo-2,3-dihydro-1H-pyrrolo[2,3-b]pyridin-1-yl)carbonyl]-1-(cis-2-hydroxycyclopentyl)-8-methylimidazo[1,5-a]quinoxalin-4(5H)-one] displayed a melting point of 296 to 303 °C. For the same compound, at PDE9, the IC50 came to 62 nM.
As to `O=C(c1cc2[nH]c(=O)c3cnc(C4CCOCC4)n3c2cc1Cl)N1CCc2cc(Br)cnc21` [Example 48], the melting point was 270 to 275 °C (dec.). On PDE9, this compound had a 50% inhibitory concentration (IC50) of 0.8 nM.
Compound `Cc1cc2c(cc1C(=O)N1CCc3cc(Br)cnc31)[nH]c(=O)c1cnc(C3CCOC3)n12` (single isomer, unassigned) [Example 29(b)] came in with an IC50 against PDE9 of 5.6 nM. For the same compound, in data set [1], the “ratio with increased urethra relaxation time during voiding (increase relative to the solvent administration group (vs vehicle))” value came to 149%.
In turn, `COCc1cc2c(cc1C(=O)N1CCc3cc(Br)cnc31)[nH]c(=O)c1cnc(C3CCOC3)n12` (single isomer, unassigned) [Example 43(b)] showed an IC50 on PDE9 of 2.8 nM. In addition, the “ratio with increased urethra relaxation time during voiding (increase relative to the solvent administration group (vs vehicle))” value in data set [1] is listed as 138%.
As to `O=C(c1cc2[nH]c(=O)c3cnc(C4CCOCC4)n3c2cc1OCC1CCOC1)N1CCc2cc(Br)cnc21` (centres unmarked) [Example 1, 7-[(5-bromo-2,3-dihydro-1H-pyrrolo[2,3-b]pyridin-1-yl)carbonyl]-8-(tetrahydrofuran-3-ylmethoxy)-1-(tetrahydro-2H-pyran-4-yl)imidazo[1,5-a]quinoxalin-4(5H)-one], the melting point was 321 to 324 °C (dec.). The compound also had a half-maximal inhibitory concentration (IC50) at PDE9 of 3.5 nM.
Turning to `Cl.O=C(c1cc2[nH]c(=O)c3cnc(C4CCOCC4)n3c2cc1OCC1CCOC1)N1CCc2cc(F)ccc21` (centres unmarked) [Example 10], the melting point was in the range of 177 to 180 °C. The compound also yielded an IC50 against PDE9 of 4.5 nM.
For `Cc1cc2c(cc1C(=O)N1CCc3cc(F)ccc31)[nH]c(=O)c1cnc([C@@H]3CCC[C@@H]3O)n12` [Example 22], the melting point lay in the range of 197 to 199 °C. The compound also had an IC50 at PDE9 of 56 nM.
